Where two headings read alike, the source gives them in different places.
Experiments:
[1] = Plasma free fraction (fu) and unbound Cmax (Cmax,u); format: in vitro ADME, human; conditions: unbound plasma Cmax
Method: The prediction of DILI severity was evaluated further using the 3D combined HCI assays using plasma-free fraction. The majority of fu values were obtained from literature, when unavailable in-house prediction was utilised. Unbound plasma Cmax concentrations (Cmax,u) were derived by multiplying total plasma Cmax with the corresponding free fraction (fu) for each compound.

PHH 3D spheroids = test system: PHH 3D spheroids; set-up: method as in Bell et al. 2018; conditions: 14-day exposure, three donors, ref Bell et al. 2018; cited from earlier work
OATP1B1 = conditions: known substrates; cited from earlier work
[2] = cited from earlier work
[3] = test system: primary human hepatocytes, NIH3T3 fibroblasts, BSEP, CYP3A4; conditions: cited from earlier work
[4] = test system: THLE or HepG2 cells, isolated mitochondria, BSEP; conditions: cited from earlier work
PHH = conditions: cited from earlier work
hLiMTs [5] = conditions: cited from earlier work
PHH spheroids = conditions: cited from earlier work
[6] = test system: HepG2 C3A spheroid, BSEP, Glu/Gal in HepG2 cells, bioactivation; conditions: cited from earlier work
[7] = read-out: Human plasma Cmax; total plasma Cmax.tot, median of 9 literature references; cited from earlier work
[8] = plasma free fraction; cited from earlier work
[9] = cited from earlier work; remark: listed apart in the source
[10] = test system: THLE-Null and THLE-3A4 cells; conditions: In vitro Assay; ref Gustafsson 2014; cited from earlier work
[11] = test system: HepG2 cells, primary human hepatocytes; conditions: In vitro Assay; ref Garside 2014; cited from earlier work
[12] = ref Chen 2011; cited from earlier work
rBsep = conditions: In vitro Assay; ref Dawson 2012; cited from earlier work
hLiMTs [13] = test: Combined HCI (HCS) and cellular ATP 3D assay in hLiMTs; conditions: for AC50 / minimal effective concentration: Homo sapiens
HepaRG spheroids = test: Combined HCI (HCS) and cellular ATP 3D assay in HepaRG spheroids; conditions: for AC50 / minimal effective concentration: Homo sapiens
[14] = In vitro Assay, ref Schadt 2015
[15] = Modeled in vitro assays (cytotoxicity, mitochondrial dysfunction, BSEP), ref Aleo et al. 2019
[16] = In vitro Assay, ref Proctor 2017
[17] = Microtissue model structural based (HCI), combined HCS and ATP, MEC < 25 × Cmax.tot cut-off

COc1ccccc1Oc1c(NS(=O)(=O)c2ccc(C(C)(C)C)cc2)nc(-c2ncccn2)nc1OCCO [bosentan]
Human plasma Cmax,u [1]: 0.149 µM
detection at 10 × Cmax.tot cut-off (PHH 3D spheroids): only detected by one of three donors
substrate for hepatic uptake transporter OATP1B1 (OATP1B1): known substrates
DILI severity category (Chen et al. [2016]) ([2]; LTKB DILIrank category, ref Chen et al. 2016): Most
DILI severity category (Chen 2016) ([2]; human DILI classification, LTKB DILIrank, ref Chen et al. 2016): Most
DILI severity category ([2]; human DILI severity, ref Chen et al.): Most
DILI +VE (5-8), DILI -VE (-4) ([2]; ref Chen 2016): +VE
DILI severity category ([2]; ref Chen 2016): vMost-DILI-Concern
DILI in vitro assay prediction, Schadt (2015) ([3]; BSEP & Metabolism based, ref Schadt et al. 2015): +VE
Cellular toxicity (3T3 cells) [3, 14]: -VE
Combined Assay [3, 14]: +VE
GSH adduct HML [3, 14]: +VE
Hepatocyte cellular toxicity [3, 14]: +VE
MitoTox 3T3 [3, 14]: -VE
TDI CYP3A4 [3, 14]: -VE
hBSEP inhibition [3, 14]: +VE
Partition Hybrid HRM Score ([4]; In vitro Assay, ref Aleo 2019): +VE
Ro2 Hybrid HRM Score ([4]; In vitro Assay, ref Aleo 2019): +VE
Partition Hybrid HRM Score ≥4, Aleo (2019) [4, 15]: +VE (Partition Hybrid HRM Score ≥4)
Partition Hybrid HRM Score ≥8, Aleo (2019) [4, 15]: +VE (Partition Hybrid HRM Score ≥8)
Rule of Two hybrid HRM Score ≥3, Aleo (2019) [4, 15]: +VE (Rule of Two hybrid HRM Score ≥3)
Rule of Two hybrid HRM Score ≥8, Aleo (2019) [4, 15]: +VE (Rule of Two hybrid HRM Score ≥8)
PHH/100xCmax, Proctor (2017) (PHH; 2D PHH, ATP, IC50 < 100 × Cmax.tot, ref Proctor et al. 2017): -VE
PHH/100uM, Proctor (2017) (PHH; 2D PHH, ATP, IC50 threshold 100 µM, ref Proctor et al. 2017): -VE
PHH ATP <100uM (PHH; [16]): -VE
hLiMTs ATP <100uM (hLiMTs [5]; [16]): +VE (IC50 threshold of 100 µM)
hLiMTs/100xCmax, Proctor (2017) (hLiMTs [5]; hLiMTs, ATP, IC50 < 100 × Cmax.tot, ref Proctor et al. 2017): +VE (IC50 < 100 × Cmax.tot)
hLiMTs/100uM, Proctor (2017) (hLiMTs [5]; hLiMTs, ATP, IC50 threshold 100 µM, ref Proctor et al. 2017): +VE (IC50 threshold of 100 µM)
hLiMTs ATP <20 x Cmax (PHH spheroids; In vitro Assay, ref Vorrink 2018): +VE (IC20 < 20 × Cmax.tot cut-off)
DILI in vitro assay prediction, Vorrink (2018) (PHH spheroids; PHH spheroids, ATP, 14 days, IC20 < 20 × Cmax.tot, ref Vorrink et al. 2018): +VE (IC20 < 20 × Cmax.tot cut-off)
Bayesian Machine Learning DILI prediction, Williams (2019) ([6]; Bayesian modeling, ref Williams et al. 2019): +VE
Bayesian Machine Learning ([6]; In vitro Assay, ref Williams 2019): +VE
Cmax [7]: 7.43 µM
fu [8]: 0.020
Assigned DILI category ([9]; Chen et al. 2016 or literature alignment, ref Chen et al. 2016): 3
In vivo DILI ([9]; ref Aleo 2019): +VE
In vivo DILI ([9]; ref Dawson 2012): +VE
In vivo DILI ([9]; ref Garside 2014): +VE
In vivo DILI ([9]; ref Gustafsson 2014): +VE
In vivo DILI ([9]; ref Proctor 2017): +VE
In vivo DILI ([9]; ref Schadt 2015): +VE
In vivo DILI ([9]; ref Vorrink 2018): +VE
In vivo DILI ([9]; ref Williams 2019): +VE
THLE-Null [10]: -VE
THLE-Null/3A4 [10]: -VE
Cluster 1-6 +VE Assay [11]: -VE
DILI Score (FDA) (1-8) [12]: 7
Inhibition of rBsep cutoff<1& cmax u>.2 (rBsep): +VE
Inhibition of rBsep cutoff<3 (rBsep): +VE
AC50 (hLiMTs [13]; read-out: ATP endpoint AC50): 57.9 µM
minimal effective concentration (hLiMTs [13]; read-out: ATP endpoint MEC): 29.4 µM
AC50 (hLiMTs [13]; read-out: HCS endpoint AC50): 179 µM
minimal effective concentration (hLiMTs [13]; read-out: HCS endpoint MEC): 63 µM
DILI prediction hLiMTs (HCS-MEC) (hLiMTs [13]; [17]): +VE (MEC < 25 × Cmax.tot cut-off)
hLiMTs <25x Avg Cmax ATP (hLiMTs [13]; hLiMTs, ATP endpoint, cut-off <25x Avg Cmax): +ve
hLiMTs <100x Avg Cmaxu ATP (hLiMTs [13]; hLiMTs, ATP endpoint, cut-off <100x Avg Cmaxu): -ve
hLiMTs <25x Avg Cmax HCS (hLiMTs [13]; hLiMTs, HCS endpoints, cut-off <25x Avg Cmax): +ve
hLiMTs <100x Avg Cmaxu HCS (hLiMTs [13]; hLiMTs, HCS endpoints, cut-off <100x Avg Cmaxu): -ve
hLiMTs <25x Avg Cmax All (hLiMTs [13]; hLiMTs, all endpoints (ATP and HCS), cut-off <25x Avg Cmax): +ve
hLiMTs Cmax max All (hLiMTs [13]; hLiMTs, all endpoints, Cmax max used): +ve
hLiMTs Cmax min All (hLiMTs [13]; hLiMTs, all endpoints, Cmax min used): +ve
hLiMTs <10 uM All (hLiMTs [13]; hLiMTs, all endpoints, cut-off <10 uM): -ve
hLiMTs <100x Avg Cmaxu All (hLiMTs [13]; hLiMTs, all endpoints, cut-off <100x Avg Cmaxu): -ve
HepaRG <25x Avg Cmax ATP (HepaRG spheroids; HepaRG, ATP endpoint, cut-off <25x Avg Cmax): +ve
HepaRG <100x Avg Cmaxu ATP (HepaRG spheroids; HepaRG, ATP endpoint, cut-off <100x Avg Cmaxu): -ve
HepaRG <25x Avg Cmax HCS (HepaRG spheroids; HepaRG, HCS endpoints, cut-off <25x Avg Cmax): +ve
HepaRG <100x Avg Cmaxu HCS (HepaRG spheroids; HepaRG, HCS endpoints, cut-off <100x Avg Cmaxu): -ve
HepaRG <25x Avg Cmax All (HepaRG spheroids; HepaRG, all endpoints (ATP and HCS), cut-off <25x Avg Cmax): +ve
HepaRG Cmax max All (HepaRG spheroids; HepaRG, all endpoints, Cmax max used): +ve
HepaRG Cmax min All (HepaRG spheroids; HepaRG, all endpoints, Cmax min used): +ve
HepaRG <10 uM All (HepaRG spheroids; HepaRG, all endpoints, cut-off <10 uM): -ve
HepaRG <100x Avg Cmaxu All (HepaRG spheroids; HepaRG, all endpoints, cut-off <100x Avg Cmaxu): -ve
AC50 (HepaRG spheroids; HepaRG, read-out: ATP endpoint AC50): 74.7 µM
minimal effective concentration (HepaRG spheroids; HepaRG, read-out: ATP endpoint MEC): 35.2 µM
AC50 (HepaRG spheroids; HepaRG, read-out: HCS endpoint AC50): 125 µM
minimal effective concentration (HepaRG spheroids; HepaRG, read-out: HCS endpoint MEC): 40 µM
DILI prediction HepaRG spheroids (HCS-MEC) (HepaRG spheroids; [17]): +VE (MEC < 25 × Cmax.tot cut-off)
